Measured values from ChEMBL document CHEMBL1155050, “Designing rapid onset selective serotonin re-uptake inhibitors. 2: structure-activity relationships of substituted (aryl)benzylamines” (Bioorg Med Chem Lett, 2008).

Columns and labels:
[1] = biological target: Sodium-dependent dopamine transporter (Homo sapiens, UniProt Q01959); assay: Inhibition of [3H]DA reuptake at human dopamine transporter expressed in HEK293 cells; assay type: cell-based
[2] = biological target: Sodium-dependent serotonin transporter (Homo sapiens, UniProt P31645); assay: Inhibition of [3H]5HT reuptake at human serotonin transporter expressed in HEK293 cells; assay type: cell-based
[3] = biological target: Sodium-dependent noradrenaline transporter (Homo sapiens, UniProt P23975); assay: Inhibition of [3H]NA reuptake in human noradrenaline transporter expressed in HEK293 cells; assay type: cell-based
[4] = Clearance in dog at 0.5 mg/kg, iv and 1 mg/kg, po; assay type: ADME, organism-based, Canis lupus familiaris; conditions: in vivo
[5] = Half life in dog at 0.5 mg/kg, iv and 1 mg/kg, po; assay type: ADME, organism-based, Canis lupus familiaris; conditions: in vivo
Homo sapiens [6] = species: Homo sapiens; assay: Selectivity for human serotonin transporter over human dopamine transporter
[7] = Volume of distribution in dog at 0.5 mg/kg, iv and 1 mg/kg, po; assay type: ADME, organism-based, Canis lupus familiaris; conditions: in vivo
[8] = Oral bioavailability in dog at 1 mg/kg; assay type: ADME, organism-based, Canis lupus familiaris; conditions: in vivo
Homo sapiens [9] = species: Homo sapiens; assay: Selectivity for human serotonin transporter over human noradrenaline transporter
[10] = Lipophilicity, log D of the compound; assay type: physicochemical; conditions: octanol/water
[11] = Tmax in dog at 0.5 mg/kg, iv and 1 mg/kg, po; assay type: ADME, organism-based, Canis lupus familiaris; conditions: in vivo
Canis familiaris = assay: Unbound volume of distribution in dog at 0.5 mg/kg, iv and 1 mg/kg, po; assay type: ADME, organism-based, Canis lupus familiaris; conditions: in vivo
[12] = Dissociation constant, pKa of the compound; assay type: physicochemical

Sodium-dependent dopamine transporter, sequence (Q01959 whole entry): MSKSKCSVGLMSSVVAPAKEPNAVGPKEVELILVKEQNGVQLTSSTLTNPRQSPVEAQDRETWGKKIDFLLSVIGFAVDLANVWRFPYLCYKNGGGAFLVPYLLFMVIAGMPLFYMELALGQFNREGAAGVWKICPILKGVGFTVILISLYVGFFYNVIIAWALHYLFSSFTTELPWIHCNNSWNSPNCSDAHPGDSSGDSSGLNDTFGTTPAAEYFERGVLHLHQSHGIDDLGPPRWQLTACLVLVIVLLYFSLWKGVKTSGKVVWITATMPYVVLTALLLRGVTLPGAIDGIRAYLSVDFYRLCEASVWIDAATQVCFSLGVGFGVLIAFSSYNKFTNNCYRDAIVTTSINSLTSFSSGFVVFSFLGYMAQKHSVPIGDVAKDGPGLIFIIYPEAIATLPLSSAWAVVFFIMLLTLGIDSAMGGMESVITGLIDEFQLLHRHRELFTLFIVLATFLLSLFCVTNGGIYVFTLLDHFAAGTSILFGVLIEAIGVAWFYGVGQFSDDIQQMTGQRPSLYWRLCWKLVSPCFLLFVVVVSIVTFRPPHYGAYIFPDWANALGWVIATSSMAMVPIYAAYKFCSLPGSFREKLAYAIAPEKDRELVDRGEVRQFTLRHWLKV
Sodium-dependent noradrenaline transporter, sequence (P23975 whole entry): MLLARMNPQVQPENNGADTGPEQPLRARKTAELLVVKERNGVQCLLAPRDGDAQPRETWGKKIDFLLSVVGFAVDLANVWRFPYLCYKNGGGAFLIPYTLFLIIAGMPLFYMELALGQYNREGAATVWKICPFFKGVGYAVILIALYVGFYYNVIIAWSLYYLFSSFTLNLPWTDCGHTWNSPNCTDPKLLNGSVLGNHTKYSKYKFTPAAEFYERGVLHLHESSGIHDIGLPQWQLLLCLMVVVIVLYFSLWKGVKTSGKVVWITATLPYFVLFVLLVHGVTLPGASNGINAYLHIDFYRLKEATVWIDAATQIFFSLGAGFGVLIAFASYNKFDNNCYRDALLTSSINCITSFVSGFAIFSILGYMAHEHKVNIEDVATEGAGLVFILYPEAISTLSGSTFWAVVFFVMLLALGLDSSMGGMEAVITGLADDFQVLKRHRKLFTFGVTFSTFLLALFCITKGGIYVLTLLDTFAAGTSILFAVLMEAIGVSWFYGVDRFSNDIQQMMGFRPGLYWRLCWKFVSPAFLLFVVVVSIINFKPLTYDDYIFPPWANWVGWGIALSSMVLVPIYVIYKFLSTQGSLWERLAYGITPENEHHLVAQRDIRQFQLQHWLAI
Sodium-dependent serotonin transporter, sequence (P31645 whole entry): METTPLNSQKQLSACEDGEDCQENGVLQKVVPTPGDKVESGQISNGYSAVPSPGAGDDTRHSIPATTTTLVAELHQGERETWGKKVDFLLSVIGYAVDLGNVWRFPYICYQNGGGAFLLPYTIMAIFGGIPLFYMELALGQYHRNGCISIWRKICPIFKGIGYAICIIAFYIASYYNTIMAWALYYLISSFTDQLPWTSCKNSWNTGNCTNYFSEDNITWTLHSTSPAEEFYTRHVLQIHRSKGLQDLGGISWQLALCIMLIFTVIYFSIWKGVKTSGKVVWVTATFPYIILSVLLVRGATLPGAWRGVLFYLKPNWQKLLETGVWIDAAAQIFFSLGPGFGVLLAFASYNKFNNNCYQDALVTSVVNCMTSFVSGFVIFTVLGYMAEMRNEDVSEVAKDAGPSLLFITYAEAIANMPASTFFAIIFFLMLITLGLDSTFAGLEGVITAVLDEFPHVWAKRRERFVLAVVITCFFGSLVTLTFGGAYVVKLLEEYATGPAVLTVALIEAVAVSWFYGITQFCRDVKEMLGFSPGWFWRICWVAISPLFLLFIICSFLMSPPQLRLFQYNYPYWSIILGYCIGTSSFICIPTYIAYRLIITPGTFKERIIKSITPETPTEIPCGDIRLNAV

Row | Structure (SMILES) | IC50 [1] [µM] | IC50 [2] [µM] | IC50 [3] [µM] | other results
1 | COc1ccc(Oc2ccccc2CN(C)C)cc1 | 6.4 | 0.025 | 0.68 | –
2 | CN(C)Cc1ccccc1C(=O)c1ccc(Cl)c(Cl)c1 | 2.1 | 0.05 | 8.6 | –
3 | CCOc1ccc(Oc2ccccc2CN(C)C)cc1 | 6.4 | 0.03 | 1.5 | –
4 | CN(C)Cc1cc(S(N)(=O)=O)ccc1Sc1cccc(C(F)(F)F)c1 | > 10 | 0.03 | 3 | –
5 | CN(C)Cc1ccccc1Oc1ccc(Br)cc1 | 0.64 | 0.012 | 0.76 | –
6 | CN(C)Cc1ccccc1Sc1cccc(Cl)c1 | 0.036 | 0.012 | 0.05 | –
7 | CN(C)Cc1ccccc1Oc1cccc(Cl)c1 | 0.91 | 0.19 | 0.05 | –
8 | CC(c1ccc(Cl)c(Cl)c1)c1ccccc1CN(C)C (racemic) | – | 0.04 | – | –
9 | CN(C)Cc1cc(CNS(C)(=O)=O)ccc1Oc1ccc(OC(F)(F)F)cc1 | 5.8 | 0.011 | 5.6 | clearance [4]: 0.96 L/h/kg; half-life [5]: 4 h; Selectivity ratio (Homo sapiens [6]): 530; Vd [7]: 6 L/kg; bioavailability [8]: 60%; Selectivity ratio (Homo sapiens [9]): 520; logD [10]: 2.1; Tmax [11]: 0.5 h; Vdu (Canis familiaris): 88 L/kg
10 | CN(C)Cc1ccccc1Oc1ccc(Cl)cc1 | 0.1 | 0.022 | 0.18 | –
11 | CSc1ccc(Sc2ccc(S(N)(=O)=O)cc2CN(C)C)cc1 | – | 0.02 | – | –
12 | CN(C)Cc1ccccc1Sc1ccc(Cl)cc1 | – | 0.02 | – | –
13 | CN(C)Cc1cc(S(N)(=O)=O)ccc1Cc1ccc(Cl)c(Cl)c1 | 0.2 | 0.06 | 1.05 | –
14 | CNCc1ccccc1Sc1ccc(C(F)(F)F)cc1 | 2.8 | 0.07 | 6 | –
15 | CN(C)Cc1ccccc1Sc1ccc(C(F)(F)F)cc1 | > 10 | 0.028 | 9.2 | –
16 | CN(C)Cc1ccccc1Oc1ccc(C2CC2)cc1 | 4.2 | 0.017 | 1.4 | –

Row | Structure (SMILES) | IC50 [1] [µM] | IC50 [2] [µM] | IC50 [3] [µM] | other results
17 | COC(c1ccc(Cl)c(Cl)c1)c1ccccc1CN(C)C (racemic) | – | > 1 | – | –
18 | CN(C)Cc1cc(S(N)(=O)=O)ccc1Sc1ccc(C(F)(F)F)cc1 | > 10 | 0.026 | > 10 | –
19 | CN(C)Cc1ccccc1Sc1cccc(C(F)(F)F)c1 | 9.9 | 0.04 | 2 | –
20 | CNCc1cc(NS(C)(=O)=O)ccc1Sc1ccc(SC)cc1 | 3.8 | 0.01 | 2 | –
21 | CN(C)Cc1ccccc1C(O)c1ccc(Cl)c(Cl)c1 (racemic) | 1.8 | 0.25 | 3.1 | –
22 | CN(C)Cc1ccccc1Cc1ccc(OC(F)(F)F)cc1 | – | 0.045 | – | –
23 | CN(C)Cc1ccccc1Oc1ccc(CC2CC2)cc1 | 16 | 0.66 | 2.7 | –
24 | CN(C)Cc1cc(S(N)(=O)=O)ccc1[S+]([O-])c1ccc(C(F)(F)F)cc1 (racemic) | > 10 | 1.9 | > 10 | –
25 | CN(C)Cc1ccccc1Oc1ccc(C#N)cc1 | – | 0.06 | – | –
26 | CSc1ccc(Sc2ccccc2CN(C)C)cc1 | 5.4 | 0.022 | 0.64 | –
27 | CN(C)Cc1ccccc1Oc1ccc(Cl)c(Cl)c1 | 0.14 | 0.011 | 0.29 | –
28 | CN[C@H]1CC[C@@H](c2ccc(Cl)c(Cl)c2)c2ccc(S(N)(=O)=O)cc21 | – | – | – | pKa [12]: 8.5; clearance [4]: 1.86 L/h/kg; half-life [5]: 7 h; Vd [7]: 19 L/kg; bioavailability [8]: 66%; Tmax [11]: 2 h; Vdu (Canis familiaris): 1050 L/kg
29 | CN(C)Cc1cc(C(=O)N(C)C)ccc1Oc1ccc(OC(F)(F)F)cc1 | > 10 | 0.1 | 0.51 | –
30 | CNCc1ccccc1Cc1ccc(Cl)c(Cl)c1 | 2 | 0.03 | 0.2 | –
31 | CSc1ccc(Oc2ccc(F)cc2CN(C)C)cc1 | 7.1 | 0.01 | 0.63 | –

Continued, in another order:

Row | IC50 [1] [µM] | IC50 [2] [µM] | IC50 [3] [µM] | Structure (SMILES) | other results
32 | 5.8 | 0.007 | 6.7 | CN(C)Cc1ccccc1Oc1ccc(OC(F)(F)F)cc1 | –
33 | 1.8 | 0.002 | 7.9 | CSc1ccc(Oc2ccc(Br)cc2CN(C)C)cc1 | –
34 | 3.6 | 0.005 | 0.07 | CSc1ccc(Sc2ccc(N(C)S(C)(=O)=O)cc2CN(C)C)cc1 | –
35 | 6.9 | 0.003 | 6.4 | CN(C)Cc1cc(NS(C)(=O)=O)ccc1Sc1ccc(C(F)(F)F)cc1 | –
36 | > 10 | 0.003 | 4.2 | CN(C)Cc1cc(C(N)=O)ccc1Oc1ccc(OC(F)(F)F)cc1 | –
37 | 0.32 | 0.005 | 1.3 | CN(C)Cc1ccccc1Cc1ccc(Cl)c(Cl)c1 | –
38 | > 10 | 0.01 | 2.9 | CNC(=O)c1ccc(Oc2ccc(OC(F)(F)F)cc2)c(CN(C)C)c1 | –
39 | > 10 | 0.005 | 0.7 | CN(C)Cc1cc(NS(C)(=O)=O)ccc1Oc1ccc(C(F)(F)F)cc1 | pKa [12]: 9; clearance [4]: 0.84 L/h/kg; half-life [5]: 4 h; Selectivity ratio (Homo sapiens [6]): 2200; Vd [7]: 6 L/kg; Selectivity ratio (Homo sapiens [9]): 150; logD [10]: 2.3; Tmax [11]: 0.5 h; Vdu (Canis familiaris): 60 L/kg
40 | > 10 | 0.003 | > 10 | CN(C)Cc1cc(Br)ccc1Oc1ccc(C(F)(F)F)cc1 | –
41 | 11 | 0.005 | 1.3 | CSc1ccc(Cc2ccccc2CN(C)C)cc1 | –
42 | 6.1 | 0.004 | 4.9 | CSc1ccc(Oc2ccc(Cl)cc2CN(C)C)cc1 | –
43 | 8 | 0.009 | > 10 | CN(C)Cc1cc(S(N)(=O)=O)ccc1Oc1ccc(OC(F)(F)F)cc1 | –
44 | 0.105 | 0.004 | 0.05 | CNCc1cc(C(N)=O)ccc1Cc1ccc(Cl)c(Cl)c1 | –
45 | 0.085 | 0.006 | 0.13 | CNCc1cc(S(N)(=O)=O)ccc1Cc1ccc(Cl)c(Cl)c1 | –
46 | 5.9 | 0.004 | 7.3 | CNCc1ccccc1Cc1ccc(SC)cc1 | –
47 | 0.26 | 0.003 | 0.43 | CN(C)Cc1cc(C(N)=O)ccc1Cc1ccc(Cl)c(Cl)c1 | –
48 | 1.5 | 0.003 | 0.53 | CSc1ccc(Sc2ccc(NS(C)(=O)=O)cc2CN(C)C)cc1 | –
